Experimental data from ChEMBL document CHEMBL1201862, “PubChem BioAssay data set” (2004).
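Five concentrations, 48 hours, 96-well plates. Abbreviation: GI50, concentration required for 50% inhibition of growth.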 Active and inactive are the calls of the source. Rule as the data show it: active = GI50 up to about 1.1 µM and inactive = higher.

Tests used:
Assay in all cases: growth of human tumour cells (NCI), 48 h
HCC 2998 = tested on: HCC 2998
RPMI-8226 = tested on: RPMI-8226
PC-3 = tested on: PC-3
SNB-19 = tested on: SNB-19
HCT-116 = tested on: HCT-116
UACC-257 = tested on: UACC-257
UACC-62 = tested on: UACC-62
EKVX = tested on: EKVX
TK-10 = tested on: TK-10
MDA-N = tested on: MDA-N
NCI-H23 = tested on: NCI-H23
SK-OV-3 = tested on: SK-OV-3
A549 = tested on: A549
COLO 205 = tested on: COLO 205
MDA-MB-231 = tested on: MDA-MB-231
MDA-MB-435 = tested on: MDA-MB-435
HCT-15 = tested on: HCT-15
SF-295 = tested on: SF-295
OVCAR-4 = tested on: OVCAR-4
HOP-92 = tested on: HOP-92

`Cc1c2cnccc2c(C)c2c1[nH]c1ccc(O)cc12` was tested, and the GI50 (HCC 2998) was 1.57 µM (inactive), the GI50 (RPMI-8226) was 1.59 µM (inactive) and the GI50 (PC-3) was 2.15 µM (inactive). The GI50 (SNB-19) was 3.21 µM (inactive), the GI50 (HCT-116) was 0.796 µM (active) and the GI50 (UACC-257) was 2.73 µM (inactive). The GI50 (UACC-62) was 7.76 µM (inactive), the GI50 (EKVX) was 2.88 µM (inactive) and the GI50 (TK-10) was 3.91 µM (inactive). For the same compound, the GI50 (MDA-N) was 2.79 µM (inactive), the GI50 (NCI-H23) was 1.57 µM (inactive) and the GI50 (SK-OV-3) was 6.58 µM (inactive). For the same compound, the GI50 (A549) was 1.52 µM (inactive), the GI50 (COLO 205) was 2.68 µM (inactive) and the GI50 (MDA-MB-231) was 1.57 µM (inactive). For the same compound, the GI50 (MDA-MB-435) was 1.78 µM (inactive), the GI50 (HCT-15) was 0.971 µM and the GI50 (SF-295) was 1.06 µM (active). The GI50 (OVCAR-4) was 2.33 µM (inactive).
For `COC1(OC)C2C=CC1C([C@](C)(N)CO)C2` (some centres undefined), the GI50 (HOP-92) was > 100 µM (inactive), the GI50 (HCC 2998) was > 100 µM (inactive) and the GI50 (PC-3) was > 100 µM (inactive). For the same compound, the GI50 (SNB-19) was > 100 µM (inactive), the GI50 (HCT-116) was > 100 µM (inactive) and the GI50 (UACC-257) was > 100 µM (inactive). The GI50 (UACC-62) was > 100 µM (inactive), the GI50 (EKVX) was > 100 µM (inactive) and the GI50 (TK-10) was > 100 µM (inactive). For the same compound, the GI50 (MDA-N) was > 100 µM (inactive), the GI50 (NCI-H23) was > 100 µM (inactive) and the GI50 (SK-OV-3) was > 100 µM (inactive). The GI50 (A549) was > 100 µM (inactive), the GI50 (COLO 205) was > 100 µM (inactive) and the GI50 (MDA-MB-231) was > 100 µM (inactive). The GI50 (MDA-MB-435) was > 100 µM (inactive), the GI50 (SF-295) was > 100 µM (inactive) and the GI50 (OVCAR-4) was > 100 µM (inactive).
In the case of `COc1cc(O)c2c(=O)c(O)c(-c3ccc(O)c(OC)c3)oc2c1` [RHAMNAZIN], the GI50 (HOP-92) is reported as 0.838 µM (active), the GI50 (HCC 2998) is reported as 7.6 µM (inactive) and the GI50 (RPMI-8226) is reported as 5.98 µM (inactive). The GI50 (PC-3) was 11 µM (inactive), the GI50 (SNB-19) was 3.83 µM (inactive) and the GI50 (HCT-116) was 5.15 µM (inactive). For the same compound, the GI50 (UACC-257) was > 100 µM (inactive), the GI50 (EKVX) was > 22.3 µM (inactive) and the GI50 (TK-10) was > 100 µM (inactive). The GI50 (MDA-N) was 4.8 µM (inactive), the GI50 (NCI-H23) was > 26.5 µM (inactive) and the GI50 (A549) was > 22.9 µM (inactive). For the same compound, the GI50 (COLO 205) was 33.7 µM (inactive), the GI50 (MDA-MB-231) was 5.57 µM (inactive) and the GI50 (HCT-15) was over 19.6 µM. The GI50 (SF-295) was > 100 µM (inactive) and the GI50 (OVCAR-4) was 2.48 µM (inactive).
With `CNc1ccc2nc(-c3ccc(OC(=O)N(C)C)cc3)cn2c1` the GI50 (HOP-92) was 22.6 µM (inactive), the GI50 (HCC 2998) was 30.1 µM (inactive) and the GI50 (PC-3) was 16 µM (inactive). For the same compound, the GI50 (SNB-19) was 16.1 µM (inactive), the GI50 (HCT-116) was 18.3 µM (inactive) and the GI50 (UACC-257) was 50.4 µM (inactive). For the same compound, the GI50 (UACC-62) was 18.8 µM (inactive), the GI50 (EKVX) was 19.3 µM (inactive) and the GI50 (TK-10) was 17.9 µM (inactive). The GI50 (MDA-N) was 19.2 µM (inactive), the GI50 (NCI-H23) was 21.2 µM (inactive) and the GI50 (SK-OV-3) was 19 µM (inactive). For the same compound, the GI50 (A549) was 16.9 µM (inactive), the GI50 (COLO 205) was 17.1 µM (inactive) and the GI50 (MDA-MB-231) was 17.1 µM (inactive). The GI50 (MDA-MB-435) was 17 µM (inactive), the GI50 (HCT-15) was 19.5 µM and the GI50 (SF-295) was 17.7 µM (inactive). For the same compound, the GI50 (OVCAR-4) was 17.5 µM (inactive).
For `O=C1Oc2ccccc2N/C1=C/C(=O)c1ccc(Cl)cc1`, the GI50 (HCC 2998) was 63.5 µM (inactive), the GI50 (PC-3) was 28.1 µM (inactive) and the GI50 (SNB-19) was > 100 µM (inactive). The GI50 (HCT-116) was 62.5 µM (inactive), the GI50 (UACC-257) was > 100 µM (inactive) and the GI50 (UACC-62) was 32.4 µM (inactive). The GI50 (EKVX) was > 100 µM (inactive), the GI50 (TK-10) was > 100 µM (inactive) and the GI50 (MDA-N) was 66.1 µM (inactive). The GI50 (NCI-H23) was > 100 µM (inactive), the GI50 (SK-OV-3) was > 100 µM (inactive) and the GI50 (A549) was 60.3 µM (inactive). For the same compound, the GI50 (COLO 205) was > 100 µM (inactive), the GI50 (MDA-MB-231) was > 100 µM (inactive) and the GI50 (MDA-MB-435) was 61.4 µM (inactive). For the same compound, the GI50 (HCT-15) was over 100 µM, the GI50 (SF-295) was 51.4 µM (inactive) and the GI50 (OVCAR-4) was > 100 µM (inactive).
`COc1ccc(C2C3CCc4ccccc4C3=NN2S(=O)(=O)c2ccc(Cl)cc2)cc1` (centres undefined) was tested, and the GI50 (HOP-92) was 20 µM (inactive), the GI50 (RPMI-8226) was 14 µM (inactive) and the GI50 (PC-3) was 17.1 µM (inactive). The GI50 (SNB-19) was 39.2 µM (inactive), the GI50 (HCT-116) was 18.3 µM (inactive) and the GI50 (UACC-257) was 17.3 µM (inactive). The GI50 (UACC-62) was 13.1 µM (inactive), the GI50 (EKVX) was 35.7 µM (inactive) and the GI50 (TK-10) was 32.4 µM (inactive). For the same compound, the GI50 (MDA-N) was 2.81 µM (inactive), the GI50 (NCI-H23) was 33.3 µM (inactive) and the GI50 (SK-OV-3) was 0.0995 µM (active). For the same compound, the GI50 (A549) was 27.9 µM (inactive), the GI50 (COLO 205) was 6.01 µM (inactive) and the GI50 (MDA-MB-231) was 17.1 µM (inactive). For the same compound, the GI50 (MDA-MB-435) was 2.07 µM (inactive), the GI50 (HCT-15) was 1.8 µM and the GI50 (SF-295) was 18.2 µM (inactive). For the same compound, the GI50 (OVCAR-4) was 30.3 µM (inactive).
In the case of `O=[N+]([O-])c1ccc(S(=O)(=O)Cc2ccccc2)c2nonc12`, the GI50 (HOP-92) is reported as 19.9 µM (inactive), the GI50 (RPMI-8226) is reported as 25.1 µM (inactive) and the GI50 (PC-3) is reported as 17.8 µM (inactive). The GI50 (SNB-19) was 37 µM (inactive), the GI50 (HCT-116) was 17.3 µM (inactive) and the GI50 (UACC-257) was 16.1 µM (inactive). The GI50 (UACC-62) was 17.8 µM (inactive), the GI50 (EKVX) was 21.1 µM (inactive) and the GI50 (TK-10) was 18.1 µM (inactive). For the same compound, the GI50 (MDA-N) was 19 µM (inactive), the GI50 (NCI-H23) was 19.1 µM (inactive) and the GI50 (SK-OV-3) was > 100 µM (inactive). The GI50 (A549) was 29.4 µM (inactive), the GI50 (COLO 205) was 16.4 µM (inactive) and the GI50 (MDA-MB-231) was 22.5 µM (inactive). The GI50 (MDA-MB-435) was 19.2 µM (inactive), the GI50 (HCT-15) was 22.3 µM and the GI50 (SF-295) was > 100 µM (inactive). The GI50 (OVCAR-4) was 17.3 µM (inactive).
